From the supplement of paper PMC4862054

Tests used:
Conditions in all cases: incubation time: 72 h
CAL-120 [1] = test: normalised viability (% of control), CellTiter-Blue; higher = more viable cells (about 100 = DMSO control)
Outline: (§1)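 Each value is normalised viability at a single listed concentration of the series. Breast cancer cell lines in 384-well plates were incubated 72 h with compound and read by CellTiter-Blue fluorescence at 560/590 nm, with vehicle set to 100 and a positive kill control to 0 on every plate.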

HCC1937 [2] = test: as above
Outline: as §1

Hs578T [3] = test: as above
Outline: as §1

MDA-MB-436 [4] = test: as above
Outline: as §1

HDQ-P1 [5] = test: as above
Outline: as §1

HCC1143 [6] = test: as above
Outline: as §1

DU-4475 [7] = test: as above
Outline: as §1

HCC1599 [8] = test: as above
Outline: as §1

CAL-120 [9] = test: drug sensitivity score (DSS), CellTiter-Blue viability (DSS (AUC-based score)); higher = stronger viability inhibition; extreme values may be limits of the assay
Experimental: (§2)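 DSRT with the CellTiter-Blue (resazurin reduction) viability readout, fluorescence 560/590 nm, 72 h incubation. Plates were normalised to DMSO and benzethonium chloride controls. DSS is computed from the area under the fitted dose-response curve (5 or 9 concentrations).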

MDA-MB-231 = test: as above
Experimental: as §2

MFM-223 = test: as above
Experimental: as §2

MDA-MB-453 = test: as above
Experimental: as §2

HCC1937 [10] = test: as above
Experimental: as §2

SK-BR-3 = test: as above
Experimental: as §2

Hs578T [11] = test: as above
Experimental: as §2

MDA-MB-436 [12] = test: as above
Experimental: as §2

HDQ-P1 [13] = test: as above
Experimental: as §2

BT-549 = test: as above
Experimental: as §2

HCC1143 [14] = test: as above
Experimental: as §2

CAL-85-1 = test: as above
Experimental: as §2

DU-4475 [15] = test: as above
Experimental: as §2

CAL-148 = test: as above
Experimental: as §2

CAL-51 = test: as above
Experimental: as §2

HCC1599 [16] = test: as above
Experimental: as §2

MDA-MB-468 = test: as above
Experimental: as §2

COc1ccc(S(=O)(=O)Nc2cccnc2Nc2ccc(O)cc2)cc1 [ABT-751]
normalised viability [%]
Conditions	CAL-120 [1]	DU-4475 [7]	HCC1143 [6]	HCC1599 [8]	HCC1937 [2]	HDQ-P1 [5]	Hs578T [3]	MDA-MB-436 [4]
3 nM	–	88.8	–	–	–	91.2	–	–
10 nM	81.7	–	83.8	112	86.8	–	98.9	86
30 nM	–	95.2	–	–	–	102	–	–
100 nM	–	89.9	–	–	–	107	–	–
1000 nM	26.8	–	56.1	85.6	24.7	–	16.6	48.3
10000 nM	21.6	–	29.1	40.4	14	–	14.4	21.4

Conditions	drug sensitivity score
BT-549	6.81
CAL-51	11.8
CAL-85-1	13.7
CAL-120 [9]	14.5
CAL-148	10.7
DU-4475 [15]	10.1
HCC1143 [14]	9.7
HCC1599 [16]	5.55
HCC1937 [10]	14.9
HDQ-P1 [13]	12
Hs578T [11]	17.3
MDA-MB-231	14.3
MDA-MB-436 [12]	10.4
MDA-MB-453	17.9
MDA-MB-468	8.8
MFM-223	8.15
SK-BR-3	18.5

Cc1cc(Nc2nc(N[C@@H](C)c3ncc(F)cn3)ncc2Cl)[nH]n1 [AZD1480]
normalised viability [%]
Conditions	CAL-120 [1]	DU-4475 [7]	HCC1143 [6]	HCC1599 [8]	HCC1937 [2]	HDQ-P1 [5]	Hs578T [3]	MDA-MB-436 [4]
0.3 nM	–	102	–	–	–	106	–	–
1 nM	87.9	–	96	96	112	–	145	109
3 nM	–	104	–	–	–	108	–	–
10 nM	–	95.8	–	–	–	107	–	–
100 nM	90.6	–	102	96.6	83.9	–	102	96.4
1000 nM	72.1	–	71.8	74.6	83.4	–	80.4	125

Conditions	drug sensitivity score
BT-549	0
CAL-51	0
CAL-85-1	0
CAL-120 [9]	0
CAL-148	0
DU-4475 [15]	0.841
HCC1143 [14]	0
HCC1599 [16]	1.53
HCC1937 [10]	0
HDQ-P1 [13]	0
Hs578T [11]	0
MDA-MB-231	0
MDA-MB-436 [12]	0
MDA-MB-453	0.912
MDA-MB-468	0
MFM-223	7.5
SK-BR-3	0

CNC(=O)c1ccccc1Sc1ccc2c(/C=C/c3ccccn3)n[nH]c2c1 [Axitinib]
normalised viability [%]
Conditions	CAL-120 [1]	DU-4475 [7]	HCC1143 [6]	HCC1599 [8]	HCC1937 [2]	HDQ-P1 [5]	Hs578T [3]	MDA-MB-436 [4]
3 nM	–	107	–	–	–	101	–	–
10 nM	91.2	–	89.9	105	41.1	–	92.1	103
30 nM	–	114	–	–	–	106	–	–
100 nM	–	97	–	–	–	92.1	–	–
1000 nM	94.7	–	96.2	84.8	81.8	–	93	21.7
10000 nM	55.2	–	57.2	62	42.6	–	54.2	46

Conditions	drug sensitivity score
BT-549	4.37
CAL-51	6.1
CAL-85-1	4.41
CAL-120 [9]	0
CAL-148	5.17
DU-4475 [15]	6.24
HCC1143 [14]	2.06
HCC1599 [16]	0
HCC1937 [10]	5.79
HDQ-P1 [13]	4.73
Hs578T [11]	0
MDA-MB-231	2.62
MDA-MB-436 [12]	13.7
MDA-MB-453	7.1
MDA-MB-468	1.45
MFM-223	11.4
SK-BR-3	0

CC(O)(CS(=O)(=O)c1ccc(F)cc1)C(=O)Nc1ccc(C#N)c(C(F)(F)F)c1 (stereo not drawn) [Bicalutamide]
normalised viability [%]
Conditions	CAL-120 [1]	DU-4475 [7]	HCC1143 [6]	HCC1599 [8]	HCC1937 [2]	HDQ-P1 [5]	Hs578T [3]	MDA-MB-436 [4]
3 nM	–	92.2	–	–	–	86.9	–	–
10 nM	96	–	94.8	98.3	101	–	108	90
30 nM	–	88.8	–	–	–	110	–	–
100 nM	–	99.1	–	–	–	118	–	–
1000 nM	107	–	105	93.6	107	–	112	96.2
10000 nM	119	–	92.7	109	78.5	–	113	96.7

Conditions	drug sensitivity score
BT-549	0
CAL-51	0
CAL-85-1	0
CAL-120 [9]	0
CAL-148	0
DU-4475 [15]	0
HCC1143 [14]	0
HCC1599 [16]	0
HCC1937 [10]	0
HDQ-P1 [13]	0
Hs578T [11]	0
MDA-MB-231	0
MDA-MB-436 [12]	0
MDA-MB-453	0
MDA-MB-468	4.86e-06
MFM-223	0
SK-BR-3	0

CCNC(=O)CCC/C=C\C[C@@H]1[C@@H](/C=C/[C@@H](O)CCc2ccccc2)[C@H](O)C[C@@H]1O [Bimatoprost]
normalised viability [%]
Conditions	CAL-120 [1]	DU-4475 [7]	HCC1143 [6]	HCC1599 [8]	HCC1937 [2]	HDQ-P1 [5]	Hs578T [3]	MDA-MB-436 [4]
1.65 nM	–	112	–	–	–	111	–	–
5.5 nM	95.3	–	102	111	106	–	110	111
16.5 nM	–	99.4	–	–	–	103	–	–
55 nM	–	95.5	–	–	–	102	–	–
550 nM	92.4	–	104	111	99.9	–	116	111
5500 nM	94	–	94.2	112	89.6	–	98.1	103

Conditions	drug sensitivity score
BT-549	0
CAL-51	0
CAL-85-1	0
CAL-120 [9]	0
CAL-148	0
DU-4475 [15]	0
HCC1143 [14]	0
HCC1599 [16]	0
HCC1937 [10]	0
HDQ-P1 [13]	0
Hs578T [11]	0
MDA-MB-231	0
MDA-MB-436 [12]	0
MDA-MB-453	0
MDA-MB-468	0
MFM-223	0
SK-BR-3	0

COc1cc(Nc2c(C#N)cnc3cc(OCCCN4CCN(C)CC4)c(OC)cc23)c(Cl)cc1Cl [Bosutinib]
normalised viability [%]
Conditions	CAL-120 [1]	DU-4475 [7]	HCC1143 [6]	HCC1599 [8]	HCC1937 [2]	HDQ-P1 [5]	Hs578T [3]	MDA-MB-436 [4]
3 nM	–	105	–	–	–	109	–	–
10 nM	87.5	–	83.8	131	106	–	120	111
30 nM	–	108	–	–	–	121	–	–
100 nM	–	86.5	–	–	–	104	–	–
1000 nM	70.5	–	73	93.3	84.9	–	98.2	95
10000 nM	11.1	–	48.9	51.7	8.95	–	27.4	16.8

Conditions	drug sensitivity score
BT-549	5.28
CAL-51	3.35
CAL-85-1	5.55
CAL-120 [9]	8.36
CAL-148	7.34
DU-4475 [15]	2.82
HCC1143 [14]	5.05
HCC1599 [16]	3.68
HCC1937 [10]	6.37
HDQ-P1 [13]	6.6
Hs578T [11]	3.1
MDA-MB-231	6.93
MDA-MB-436 [12]	4.98
MDA-MB-453	6.37
MDA-MB-468	5.03
MFM-223	4.68
SK-BR-3	7.78

CCN(CC)CCCC(C)Nc1ccnc2cc(Cl)ccc12 (stereo not drawn) [Chloroquine]
normalised viability [%]
Conditions	CAL-120 [1]	DU-4475 [7]	HCC1143 [6]	HCC1599 [8]	HCC1937 [2]	HDQ-P1 [5]	Hs578T [3]	MDA-MB-436 [4]
0.297 nM	–	106	–	–	–	107	–	–
0.99 nM	96.1	–	97.8	100	100	–	92	133
2.97 nM	–	89.8	–	–	–	113	–	–
9.9 nM	–	112	–	–	–	116	–	–
99 nM	104	–	89.2	85.6	111	–	106	104
990 nM	105	–	93.4	119	100	–	93.1	141

Conditions	drug sensitivity score
BT-549	0
CAL-51	0
CAL-85-1	0
CAL-120 [9]	0
CAL-148	0
DU-4475 [15]	0
HCC1143 [14]	0
HCC1599 [16]	0
HCC1937 [10]	0
HDQ-P1 [13]	0
Hs578T [11]	0
MDA-MB-231	0
MDA-MB-436 [12]	0
MDA-MB-453	0
MDA-MB-468	0
MFM-223	0
SK-BR-3	0

Cn1cc(C2=C(c3cn(C4CCN(Cc5ccccn5)CC4)c4ccccc34)C(=O)NC2=O)c2ccccc21 [Enzastaurin]
normalised viability [%]
Conditions	CAL-120 [1]	DU-4475 [7]	HCC1143 [6]	HCC1599 [8]	HCC1937 [2]	HDQ-P1 [5]	Hs578T [3]	MDA-MB-436 [4]
3 nM	–	91.1	–	–	–	113	–	–
10 nM	89.6	–	76.8	101	91.1	–	91.2	127
30 nM	–	103	–	–	–	107	–	–
100 nM	–	94.2	–	–	–	89.3	–	–
1000 nM	95	–	64.8	93.2	75.6	–	68	56.1
10000 nM	65.9	–	61.5	82.4	48.9	–	32.6	57.8

Conditions	drug sensitivity score
BT-549	6.55
CAL-51	0
CAL-85-1	0
CAL-120 [9]	0
CAL-148	5.06
DU-4475 [15]	0
HCC1143 [14]	5.14
HCC1599 [16]	0
HCC1937 [10]	5.39
HDQ-P1 [13]	1.6
Hs578T [11]	9.93
MDA-MB-231	0
MDA-MB-436 [12]	9.96
MDA-MB-453	7.69
MDA-MB-468	0
MFM-223	6.5
SK-BR-3	10.1
